Results on five compounds are retold here after US5686426A, “Dicarboxymethylated glycolipid derivatives as cell adhesion inhibitors” (Bristol-Myers Squibb Company, priority 1994, dated 1997).

Assay [1] addresses T1, P-selectin (Homo sapiens, UniProt P16109).
T1 sequence (P16109 42-830): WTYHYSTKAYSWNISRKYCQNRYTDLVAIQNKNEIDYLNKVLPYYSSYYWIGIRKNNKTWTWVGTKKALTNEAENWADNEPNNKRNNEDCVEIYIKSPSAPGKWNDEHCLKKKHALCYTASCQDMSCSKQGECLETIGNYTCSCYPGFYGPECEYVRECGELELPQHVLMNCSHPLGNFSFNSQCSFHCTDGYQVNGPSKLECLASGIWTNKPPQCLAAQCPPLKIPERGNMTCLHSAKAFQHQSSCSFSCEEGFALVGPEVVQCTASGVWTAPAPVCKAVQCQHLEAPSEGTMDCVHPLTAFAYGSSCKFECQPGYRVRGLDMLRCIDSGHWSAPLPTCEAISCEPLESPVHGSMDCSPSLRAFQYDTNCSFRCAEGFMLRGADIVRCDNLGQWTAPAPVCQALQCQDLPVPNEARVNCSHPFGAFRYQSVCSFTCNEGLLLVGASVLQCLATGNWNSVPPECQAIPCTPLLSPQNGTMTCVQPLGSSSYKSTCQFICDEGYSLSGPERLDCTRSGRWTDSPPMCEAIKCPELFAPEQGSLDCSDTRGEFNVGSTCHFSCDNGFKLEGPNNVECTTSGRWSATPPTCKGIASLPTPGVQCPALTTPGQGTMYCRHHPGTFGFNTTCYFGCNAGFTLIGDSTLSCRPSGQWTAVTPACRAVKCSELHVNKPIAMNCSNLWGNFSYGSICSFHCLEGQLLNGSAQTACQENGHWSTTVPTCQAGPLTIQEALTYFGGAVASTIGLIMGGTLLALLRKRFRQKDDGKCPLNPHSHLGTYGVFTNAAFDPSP
The conditions noted are these: anionic polymers; literature; cited from earlier work.

Assay [2] deals with HL-60 cells / activated platelets (P-selectin). In words: HL-60 Platelet Cell Adhesion Assay. It is filed as cell-based. To be noted: HL-60 cell adhesion to thrombin-activated human platelets. The method, then: HL-60 cells, obtained from American Type Culture Collection, were cultured in RPMI 1640 medium (GIBCO) supplemented with 20% fetal calf serum (Sigma) and 50 μg/ml gentamicin (GIBCO). Cells in log phase growth were harvested, washed and resuspended in Tyrodes buffer containing 5 mM HEPES and 0.2% bovine serum albumin and were fixed with 1% buffered formalin.
Blood from normal human donors was anticoagulated with citrate, layered over 1-Step Platelets (Accurate Chemical Co.), and centrifuged at 350 g for 20 minutes at room temperature. The platelet band was collected, diluted in 2 volumes of Tyrode's Buffer with 5 mM HEPES, 10 mM EDTA, and 0.2% BSA (pH 7.4) (THEB) and centrifuged at 600 g for 10 minutes. The platelet pellet was resuspended in THEB and incubated at room temperature for 1 hour. Calcein-acetoxy methylester (Calcein-Am, Molecular Probes) was added to the platelets at a final concentration of 10 μM and incubated for 10 minutes at 37° C. to label the platelets. Without washing, the platelets were counted on a Coulter counter model ZM, and the concentration was adjusted to 1×10^7 /ml. The platelets were activated with 2 U/ml of human thrombin for 10 minutes in Tyrode's containing 2 mM CaCl2, 5 mM HEPES, and 0.2% BSA (pH 7.4) (THB) at 37° and immediately fixed with 1% buffered formalin for 1 to 2 hours at room temperature. A small aliquot of labeled platelets was removed before activation and designated as non-activated.
Both platelets and HL-60 were washed in a ≥5 fold excess volume of Hanks Balanced Salt Solution (HBSS), resuspended in THB and counted. Cell concentrations were adjusted to 2×10^7 /ml for platelets and 4×10^6 /ml for HL-60, this ratio determined to be optimum for platelet: HL-60 cell adhesion. Compounds were incubated with 50 μl of platelets for 30 minutes at room temperature before addition of 50 μl of HL-60. This ratio of 5:1 platelets to HL-60 was incubated for 30 minutes at room temperature before addition of 0.2 ml of THB to increase the volume so the samples could be analyzed on a FACScan cytometer (Becton Dickinson). Non-activated platelets, and activated platelets with 10 mM EDTA were included as controls. Data were collected within a region set for the forward scatter channel corresponding to HL-60 size events.
The percent HL-60 cells which contained bound platelets was determined for each test condition. The inhibition of binding was determined by comparison to standards which were treated with vehicle alone (representing 0% inhibition) and standards whose specific binding had been blocked by the use of EDTA (representing 100% inhibition), by the following formula: [formula] where x=HL-60 cells containing bound platelets in the presence of the compound;
b=HL-60 cells containing bound platelets in the presence of EDTA;
a=HL-60 cells containing bound platelets in presence of compound vehicle;
z=% inhibition of platelet: HL-60 cell adhesion

In assay [3] the test system is reverse passive Arthus reaction in rats. In words: Reverse Passive Arthus Reaction in Rats (RPA). The class given is in vivo, Male Sprague Dawley rats. To be noted: rat, single IV dose 3 mg, 4 hours. The source says: The reverse passive Arthus reaction in rats is a modification of the method by Mulligan et al., as described in J. Clin. Invest., (1991) 88: 1396-1406. This is an experimental model in which the interaction of antigen-antibody complexes and complement leads to a severe vasculitis that is associated with edema, induration, erythema and hemorrhage. The interaction between the antigen-antibody complexes and complement leads to a localized influx of neutrophils. These neutrophils release a variety of mediators that are associated with tissue damage and vascular permeability. The localized inflammatory reaction is measured using different techniques i.e., vascular permeability and neutrophil influx which is evaluated both biochemically and microscopically.
Male Sprague Dawley specific pathogen-free rats with jugular vein cannulae (280-320 g, Hill Top Labs, Pa.) are used in these studies. Animals are acclimated for at least 1 day and individually housed in stainless steel cages. The dorsal region of the rats is closely clipped 2 days prior to the experiments and divided into 4 sites on each side of the midline. Prior to all injections the rats are sedated with 0.4 ml per 300 gm rat of ketamine/rompun [1000 mg (10 ml) of ketamine HCL is mixed with 40 mg (2.0 ml) Rompun] administered IP and or inhalation anesthesia with metafane (methoxyflurane).
Bovin Serum Albumin (BSA) and rabbit polyclonal IgG rich in anti-BSA are purchased from Sigma Chemical Co. (St. Louis, Mo.). Radiolabelled ^125 I-BSA (spAct 1-5 μCi/μg) is purchased from Dupont NEN (Boston, Mass.).
Each rat is administered intradermal (ID) injection of (0.4 mg, 0.6 mg and 0.8 mg) anti-BSA in a volume of 100 μl per injection in normal saline. The ID injections are randomized near the mid dorsal region on both sides of the back bone. Immediately after the ID injections of the anti-BSA, the rats are administered intravenous (IV) injections of BSA (10 mg in 1.0 ml) in normal saline containing ^125 I labeled BSA (1 μCi/ml BSA or 5.0 μCi/kg body wt) for quantification of dermal vascular injury. Anti-inflammatory agents such as inhibitors of adhesion molecules of the present invention are administered IV at a single dose of 3 mg immediately after BSA. Four (4) hours after the IV injection of BSA, the rats are anesthetized with metafane and 2 to 3 ml of blood is withdrawn via the cannula into an anticoagulant containing (EDTA or Heparin) tube and plasma separated and saved for neutrophil and albumin quantitation. The rats are killed and the skin surrounding the injection site (15 mm diameter) is punched out and weighed. The skin samples and a fixed volume of plasma (0.1 to 1.0 ml) is analyzed in a gamma-counter for ^125 I content. Skin samples from the contralateral side are processed and analyzed for myeloperoxidase activity (MPO) as a measure of neutrophil accumulation. As needed, samples are also processed for histological evaluation of the reacted sites.
Vascular Permeability (VP)
The calculation of the plasma protein exudation into skin is made by determining the radioactivity in the tissue and relating this to the level of radioactive albumin in the blood at the time of sacrifice. […] [formula]
Percent inhibition of the test compound at 3 mg was determined as follows: [formula] Myeloperoxidase (MPO)
MPO is located in the azurophil granules of polymorphonuclear leukocytes (PMN). Because of its abundance in these cells (5% dry weight), this enzyme is used as a marker for tissue neutrophil content. For tissue MPO content, the method of Bradley, et al., was used as described in J. Invest. Dermatol. (1982) 78: 206-209. Biopsies from each treatment group were placed in plastic tubes (15×100 mm) containing 10 ml of 0.5% hexadecyltrimethylammonium bromide (HTAB)in 0.05M potassium phosphate buffer pH 6.0. The tissue was then homogenized with a Brinkmann Polytron homogenizer (10s). […]

The target of assay [4] is T1, P-selectin. The conditions noted are these: literature; cited from earlier work.

As usually defined, the IC50 is the concentration that gives 50% inhibition.

Take heparin: the “inhibition of P-selectin mediated adhesion (in words)” value at P-selectin [1] is recorded as “shown to inhibit P-selectin mediated adhesion”.

On to `CCCCCCCCCCCCC/C=C/[C@@H](OC(=O)c1ccccc1)[C@H](CO[C@H]1O[C@H](COC(=O)c2ccccc2)[C@H](OCC(=O)O)[C@H](OCC(=O)O)[C@H]1OC(=O)c1ccccc1)NC(=O)CCCCCCCCCCCCCCC` [Example 10, (2S,3R,4E)-2-Hexadecanoylamino-3-benzoyloxy-1-[3,4-di-O-carboxy-methyl-2,6-di-O-benzoyl-α-D-galactopyranosyloxy]-4-octadecene], for which the IC50 in assay [2] was more than 100 µM. The “RPA VP % Inhib. (vascular permeability)” value in assay [3] (125I-BSA plasma extravasation into skin) is 54%. For the same compound, the “RPA MPO % Inhib. (myeloperoxidase, neutrophil accumulation)” value in assay [3] (skin MPO activity) amounted to 65%. On to fucoidan, for which, on P-selectin [1], the “inhibition of P-selectin mediated adhesion (in words)” value was “shown to inhibit P-selectin mediated adhesion”. Turning to `CC(=O)N[C@H]1C(O)O[C@H](CO)[C@@H](O[C@@H]2O[C@H](CO)[C@H](O)[C@H](O)[C@H]2O)[C@@H]1O[C@@H]1O[C@@H](C)[C@@H](O)[C@@H](O)[C@@H]1O` (stereo partly shown) [Le^x], at P-selectin [4], the “binding to P-selectin (in words)” value was “shown to bind”.

For dextran sulfate, on P-selectin [1], the “inhibition of P-selectin mediated adhesion (in words)” value is “shown to inhibit P-selectin mediated adhesion”.
